Assay results published in article PMC12795810 (Nature Communications, 2025).

Experiments:
[1] = cited from earlier work
[2] = when combined with letrozole/abemaciclib

CN(C)C(=N)N=C(N)N [metformin]
recommended maximum concentration for safe clinical use [1]: 2500 µg/L
increase in metformin exposure [2]: more than 3 fold
